Active and inactive are the calls of the source.
Columns and labels:
[1] = biological target: T1, GABA-A receptor; alpha-1/beta-3/gamma-2 (Homo sapiens, UniProt P14867+P18507+P28472); assay: Positive allosteric modulation of GABA-A alpha1beta3gamma2S receptor (unknown origin) expressed in Xenopus laevis oocytes assessed as increase in GABA-induced chloride current after 15 mins at -70 mV holding potential by two-microelectrode voltage clamp method; assay type: cell-based
T1 sequence (P14867 whole entry): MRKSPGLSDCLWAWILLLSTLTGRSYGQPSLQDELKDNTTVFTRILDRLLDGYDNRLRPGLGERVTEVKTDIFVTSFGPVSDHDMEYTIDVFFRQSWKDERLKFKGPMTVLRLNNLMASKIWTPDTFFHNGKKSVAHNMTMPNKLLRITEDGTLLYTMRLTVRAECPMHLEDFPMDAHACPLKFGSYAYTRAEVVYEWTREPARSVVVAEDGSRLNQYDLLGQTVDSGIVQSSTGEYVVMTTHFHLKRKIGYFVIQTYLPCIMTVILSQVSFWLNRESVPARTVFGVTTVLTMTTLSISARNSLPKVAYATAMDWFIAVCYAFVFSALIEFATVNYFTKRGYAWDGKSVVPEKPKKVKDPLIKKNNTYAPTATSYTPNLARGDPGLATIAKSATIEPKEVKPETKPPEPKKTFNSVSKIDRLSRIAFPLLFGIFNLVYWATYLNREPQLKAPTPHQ
T1 sequence (P18507 whole entry): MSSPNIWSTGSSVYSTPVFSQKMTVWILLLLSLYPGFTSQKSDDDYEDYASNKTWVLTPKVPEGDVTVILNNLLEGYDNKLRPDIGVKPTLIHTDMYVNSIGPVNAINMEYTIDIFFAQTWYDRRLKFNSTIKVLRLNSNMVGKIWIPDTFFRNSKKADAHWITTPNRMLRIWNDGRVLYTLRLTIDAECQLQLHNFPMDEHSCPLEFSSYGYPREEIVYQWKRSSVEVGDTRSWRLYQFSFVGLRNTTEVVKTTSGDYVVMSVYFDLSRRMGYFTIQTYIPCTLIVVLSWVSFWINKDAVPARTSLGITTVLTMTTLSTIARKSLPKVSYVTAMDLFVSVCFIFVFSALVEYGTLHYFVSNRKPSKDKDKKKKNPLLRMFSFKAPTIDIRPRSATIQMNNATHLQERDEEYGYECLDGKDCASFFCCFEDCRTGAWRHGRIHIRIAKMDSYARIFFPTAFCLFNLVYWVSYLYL
T1 sequence (P28472 whole entry): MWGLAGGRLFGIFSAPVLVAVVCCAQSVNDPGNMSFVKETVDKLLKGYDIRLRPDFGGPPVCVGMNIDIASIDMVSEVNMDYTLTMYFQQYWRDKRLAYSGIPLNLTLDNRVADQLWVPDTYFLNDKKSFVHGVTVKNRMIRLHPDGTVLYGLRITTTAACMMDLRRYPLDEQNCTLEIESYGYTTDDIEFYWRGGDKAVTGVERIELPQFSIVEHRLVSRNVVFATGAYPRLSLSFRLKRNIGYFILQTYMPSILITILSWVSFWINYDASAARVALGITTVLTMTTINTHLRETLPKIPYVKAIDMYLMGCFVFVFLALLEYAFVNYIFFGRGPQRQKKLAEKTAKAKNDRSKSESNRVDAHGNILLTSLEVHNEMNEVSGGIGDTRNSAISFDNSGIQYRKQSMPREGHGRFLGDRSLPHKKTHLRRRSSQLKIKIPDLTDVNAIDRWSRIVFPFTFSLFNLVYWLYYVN

[2] = biological target: T2, GABA-A receptor; alpha-1/beta-2/gamma-2 (Homo sapiens, UniProt P14867+P18507+P47870); assay: Positive allosteric modulation of GABA-A alpha1beta2gamma2S receptor (unknown origin) expressed in Xenopus laevis oocytes assessed as increase in GABA-induced chloride current after 15 mins at -70 mV holding potential by two-microelectrode voltage clamp method; assay type: cell-based
T2 sequence (P14867 whole entry): T1 sequence (P14867 whole entry)
T2 sequence (P47870 whole entry): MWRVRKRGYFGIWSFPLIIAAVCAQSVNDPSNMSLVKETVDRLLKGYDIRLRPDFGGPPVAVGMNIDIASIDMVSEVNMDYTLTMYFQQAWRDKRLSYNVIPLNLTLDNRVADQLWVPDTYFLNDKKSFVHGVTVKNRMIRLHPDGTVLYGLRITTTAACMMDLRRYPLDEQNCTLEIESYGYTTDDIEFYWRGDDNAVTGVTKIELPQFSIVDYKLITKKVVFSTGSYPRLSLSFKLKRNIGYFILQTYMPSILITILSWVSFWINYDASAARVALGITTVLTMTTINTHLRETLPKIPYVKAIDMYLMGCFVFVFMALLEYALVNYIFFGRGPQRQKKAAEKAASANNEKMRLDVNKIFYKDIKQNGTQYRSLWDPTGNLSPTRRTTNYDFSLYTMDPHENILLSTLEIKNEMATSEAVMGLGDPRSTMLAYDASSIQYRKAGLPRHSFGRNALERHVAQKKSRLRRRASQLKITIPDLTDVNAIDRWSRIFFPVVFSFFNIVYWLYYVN
T2 sequence (P18507 whole entry): T1 sequence (P18507 whole entry)

Mus musculus = assay: Anticonvulsive activity in C57BL/6N mouse assessed as protection against 49 +/- 1.8 mg/kg pentylenetetrazole-induced seizures by measuring elevation in seizure threshold at 10 mg/kg, ip pretreated for 30 mins followed by pentylenetetrazole tail-vein infusion; assay type: functional, organism-based
[3] = biological target: GABA-A receptor; anion channel (Rattus norvegicus) (UniProt O09028+P15431+P18506+P18508+P19969+P20236+P23574+P23576+P28471+P28473+P30191+P62813+P63079+P63138+Q91ZM7+Q9ES14); assay: Positive allosteric modulation of GABA-A receptor in Sprague-Dawley rat primary hippocampal neurons assessed as channel-mediated tonic current at 30 uM pretreated for 300 secs followed by BMI addition for 10 secs at -70 mV holding potential by patch-clamp method (reference value: -63 pA); assay type: protein-complex assay
[4] = biological target: T3, GABA A receptor alpha-1/beta-1/gamma-2 (Homo sapiens, UniProt P14867+P18505+P18507); assay: Positive allosteric modulation of GABA-A alpha1beta1gamma2S receptor (unknown origin) expressed in Xenopus laevis oocytes assessed as increase in GABA-induced chloride current after 15 mins at -70 mV holding potential by two-microelectrode voltage clamp method; assay type: cell-based
T3 sequence (P14867 whole entry): T1 sequence (P14867 whole entry)
T3 sequence (P18507 whole entry): T1 sequence (P18507 whole entry)
T3 sequence (P18505 whole entry): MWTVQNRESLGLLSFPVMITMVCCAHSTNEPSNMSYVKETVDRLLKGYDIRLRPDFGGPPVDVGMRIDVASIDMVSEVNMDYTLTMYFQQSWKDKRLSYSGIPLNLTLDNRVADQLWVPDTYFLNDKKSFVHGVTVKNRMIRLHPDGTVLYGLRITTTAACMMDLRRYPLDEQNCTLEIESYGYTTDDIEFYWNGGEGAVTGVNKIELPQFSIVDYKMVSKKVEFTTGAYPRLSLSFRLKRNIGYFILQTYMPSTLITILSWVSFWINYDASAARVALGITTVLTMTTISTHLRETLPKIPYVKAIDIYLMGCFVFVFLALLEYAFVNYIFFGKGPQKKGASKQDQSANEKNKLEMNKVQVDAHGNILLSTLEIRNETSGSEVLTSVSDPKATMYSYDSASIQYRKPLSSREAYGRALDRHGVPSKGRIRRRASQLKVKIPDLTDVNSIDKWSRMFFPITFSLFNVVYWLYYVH

Structure (SMILES)	EC50 [1] [µM]	EC50 [2] [µM]	Activity (Mus musculus)	Activity [3] [pA]	EC50 [4] [µM]
C/C(C#N)=C\c1ccc(C)cc1Cl	44				
Cl/C(=C\n1cncn1)c1ccc(Cl)cc1Cl [LORECLEZOLE]	11				
C/C(C#N)=C\c1ccc(Cl)cc1Cl	91				
C/C(=C(/C#N)C(N)=O)c1ccc(Cl)cc1Cl	55	64			
CC1=C2[C@H](/C=C(\C)C(=O)O)CC[C@@H](C)[C@H]2CC1 [VALERENIC ACID]	19		Active	-115	
CC(=CC#N)c1ccc(C)cc1Cl (mixture of isomers)	41	41			271

From ChEMBL document CHEMBL4308853, “Design, Synthesis, and Pharmacological Evaluation of Novel β2/3 Subunit-Selective γ-Aminobutyric Acid Type A (GABAA) Receptor Modulators” (J Med Chem, 2018)
